Counter-ions that a name gives are not always drawn.

In the experiment the target is RIPK1 (recombinant GST-RIPK1 kinase domain, residues 1-327) (Homo sapiens (Human), UniProt Q13546). Kind of experiment: RIPK1-ADP-Glo Enzymatic Assay. The class given is biochemical. To be noted: ADP-Glo; 25 nM GST-RIPK1, 300 μM ATP; assay lower limit ~25 nM; read-out: RIPK1 V0 Ec50. The essentials: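 Inhibition of ADP formation was measured after compound and enzyme (25 nM) were pre-incubated for 30 minutes at ambient temperature and the kinase reaction ran for 150 minutes at 300 μM ATP with dephosphorylated MBP substrate. EC50 values come from ten-point curves fitted non-linearly.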
Chain of RIPK1 (recombinant GST-RIPK1 kinase domain, residues 1-327) (Q13546 1-327): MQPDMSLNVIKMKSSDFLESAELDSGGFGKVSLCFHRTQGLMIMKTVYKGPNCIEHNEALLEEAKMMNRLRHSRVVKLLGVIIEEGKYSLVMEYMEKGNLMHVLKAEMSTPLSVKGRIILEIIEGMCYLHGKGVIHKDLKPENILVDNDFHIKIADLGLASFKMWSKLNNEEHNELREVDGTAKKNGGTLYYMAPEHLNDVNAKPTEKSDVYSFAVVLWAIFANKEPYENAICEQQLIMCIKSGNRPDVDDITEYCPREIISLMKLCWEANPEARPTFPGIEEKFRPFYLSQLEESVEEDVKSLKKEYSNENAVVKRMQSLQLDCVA
Background: In ADP-Glo the light output rises with the ADP produced.

For `O=C1N2[C@@H](CC[C@H]2c2ccccc2F)OC12CN(S(=O)(=O)c1cccc(F)c1)C2` [Example 8.6, (5′S,7a′R)-5′-(2-fluorophenyl)-1-((3-fluorophenyl)sulfonyl) tetrahydro-3′H-spiro[azetidine-3,2′-pyrrolo[2,1-b]oxazol]-3′-one], the EC50 was determined as 421 nM.

On to `N#Cc1ccc(F)c(C(=O)N2CCC3(CC2)O[C@@H]2CC[C@@H](c4ccccc4)N2C3=O)c1` [Example 6.148], for which the EC50 was less than 25 nM.

`O=C1N2[C@@H](CC[C@H]2c2ccccc2)OC12CCN(c1ccn(-c3cnccn3)n1)CC2` [Example 11.5, (5′S,7a′R)-5′-phenyl-1-[1-(pyrazin-2-yl)-1H-pyrazol-3-yl]tetrahydro-3′H-spiro[piperidine-4,2′-pyrrolo[2,1-b][1,3]oxazol]-3′-one]: the EC50 is 67.7 nM.

`O=C(c1ncc(F)cc1F)N1CCC2(CC1)O[C@@H]1CC[C@@H](c3cc(F)cc(F)c3)N1C2=O` [Example 6.89, (5′S,7a′R)-5′-(3,5-difluorophenyl)-1-(3,5-difluoropyridine-2-carbonyl)tetrahydro-3′H-spiro[piperidine-4,2′-pyrrolo[2,1-b] [1,3]oxazol]-3′-one]: the EC50 turned out to be 35.4 nM.

With `COc1ccc(F)c(C(=O)N2CCC3(CC2)O[C@@H]2CC[C@@H](c4ccccc4)N2C3=O)c1` [Example 6.149, (5′S,7a′R)-1-(2-fluoro-5-methoxybenzene-1-carbonyl)-5′-phenyl-tetrahydro-3′H-spiro [piperidine-4,2′-pyrrolo[2,1-b][1,3]oxazol]-3′-one], the EC50 was less than 25 nM.

`CCc1cnc(N2CCC3(CC2)O[C@@H]2CC[C@@H](c4cc(F)cc(F)c4)N2C3=O)nc1` [Example 4.60, (5′S,7a′R)-5′-(3,5-difluorophenyl)-1-(5-ethylpyrimidin-2-yl)tetrahydro-3′H-spiro[piperidine-4,2′-pyrrolo[2,1-b] [1,3]oxazol]-3′-one]: the EC50 was 452 nM.

On to `O=C(c1ccoc1C(F)(F)F)N1CCC2(CC1)O[C@@H]1CC[C@@H](c3cc(F)cc(F)c3)N1C2=O` [Example 6.67, (5′S,7a′R)-5′-(3,5-difluorophenyl)-1-[2-(trifluoromethyl)-furan-3-carbonyl]-tetrahydro-3′H-spiro [piperidine-4,2′-pyrrolo[2,1-b][1,3]-oxazol]-3′-one], for which the EC50 turned out to be 50 nM.

Consider `Cn1nccc1C(=O)N1CCC2(CC1)O[C@@H]1CC[C@@H](c3cc(F)cc(F)c3)N1C2=O` [Example 5.38, (5′S,7a′R)-5′-(3,5-difluoro-phenyl)-1-(1-methyl-1H-pyrazole-5-carbonyl)tetra-hydro-3′H-spiro[piperi-dine-4,2′-pyrrolo[2,1-b]oxazol]-3′-one], for which the EC50 worked out at 103 nM.

With `O=C1N2[C@@H](CC[C@H]2C2CCCC2)OC12CCN(c1ccnc3c(F)cnn13)CC2` [Example 4.88, (5′S,7a′R)-5′-cyclopentyl-1-(3-fluoropyrazolo [1,5-a]pyrimidin-7-yl)tetrahydro-3′H-spiro[piperidine-4,2′-pyrrolo[2,1-b]oxazol]-3′-one, TFA salt], the EC50 was less than 25 nM.

Regarding `O=C1N2[C@@H](CC[C@H]2c2ccccc2F)OC12CN(S(=O)(=O)c1ccccc1)C2` [Example 8.5, (5′S,7a′R)-5′-(2-fluorophenyl)-1-(phenylsulfonyl)tetra-hydro-3′H-spiro[azetidine-3,2′-pyrrolo[2,1-b]oxazol]-3′-one], the EC50 was 429 nM.

On to `CC1CC2(CCN1C(=O)c1ncccc1F)O[C@@H]1CC[C@@H](c3cccc(F)c3)N1C2=O` (stereo partly drawn) [Example 6.159, (4R,5′S,7a′R)-5′-(3-fluorophenyl)-1-(3-fluoropyridine-2-carbonyl)-2-methyl-tetrahydro-3′H-spiro [piperidine-4,2′-pyrrolo[2,1-b][1,3]oxazol]-3′-one], for which the 50% effective concentration (EC50) came out at 826 nM.

The EC50 is the concentration giving half of the maximal effect.
